Results on twelve compounds are retold here after paper PMC11032351, “Epigenetic modulation through BET bromodomain inhibitors as a novel therapeutic strategy for progranulin-deficient frontotemporal dementia” (Scientific Reports, 2024).

Holding throughout (type): binding
One assay addresses T1, Endogenous BRD4 (NPC) (Homo sapiens, UniProt O60885).
T1 construct: target engagement toward endogenous BRD4 derived from cellular lysates of cell types of interest; endogenous in cells; host or cells: 8330-8 human iPSC-derived neural progenitor cells
Put plainly: CoraFluor TR-FRET ligand displacement, endogenous BRD4 in NPC lysate. The following applies: with 95% confidence interval, read-out: Endogenous BRD4 (NPC), KD,app. On the procedure: (§1) A cell pellet from one 15 cm dish (~ 25 M cells) of HEK293T cells, or from one confluent T-75 flask 8330-8 NPC cells (~ 9 M cells), was allowed to thaw on ice and cells were suspended in 400 μL lysis buffer (25 mM HEPES, 150 mM NaCl, 0.2% (v/v) Triton X-100, 0.02% (v/v) TWEEN-20, pH 7.5 supplemented with 2 mM DTT and one Roche cOmplete, Mini, EDTA-free protease inhibitor cocktail tablet (Sigma 11,836,170,001) per 7 mL. Cells were homogenized via passage through a 27.5-gauge needle 5 times, and the resulting mixture was incubated with slow, end-over-end mixing at 4 °C for 15 min. The lysate was clarified via centrifugation at 16,100 × g for 10 min at 4 °C then 800 μL (1:3 dilution) dilution buffer (25 mM HEPES, 150 mM NaCl, 0.005% (v/v) TWEEN-20, pH 7.5) was added and the lysate was re-clarified at 16,100 × g for 10 min at 4 °C. Total protein was quantified via detergent-compatible Bradford assay (ThermoFisher 23,246). The lysate was used fresh or flash-frozen in liquid nitrogen and stored at − 80 °C in single-use aliquots.
(§2) Unless otherwise noted, experiments were performed in white, 384-well microtiter plates (Corning 3572 or PerkinElmer ProxiPlate-384 Plus) in 30 μL or 10 μL assay volume, respectively. TR-FRET measurements were acquired on a Tecan SPARK plate reader with SPARKCONTROL software version V2.1 (Tecan Group Ltd.), with the following settings: 340/50 nm excitation, 490/10 nm (Tb), 520/10 nm (FITC) emission, 100 μs delay, and 400 μs integration. The 490/10 and 520/10 nm emission channels were acquired with a 50% mirror and a dichroic 510 mirror, respectively, using independently optimized detector gain settings unless specified otherwise. The TR-FRET ratio was taken as the 520/490 nm intensity ratio on a per-well basis.
(§3) For the profiling of endogenous BRD4, cell lysates as prepared above were diluted to 0.8 mg/mL total protein in 1:3 lysis buffer:dilution buffer with 0.5 nM rabbit anti-BRD4 antibody (Cell Signaling Technology; E2A7X) and 1 nM CoraFluor-1-labeled anti-rabbit Nano-Secondary (ChromoTek CTK0101). JQ1-FITC was added in serial dilution (cmax = 200 nM) using an HP D300 digital dispenser and allowed to equilibrate for 2 h at room temperature before TR-FRET measurements were taken. Nonspecific signal was determined with 50 μM JQ1-Acid, and data were fitted to a One Site–Specific Binding model in Prism 9. The KD,app determined from the one-site model was then adjusted for a two-site model using Eq. 1.
(§4) The following assay parameters have been used: (i) 4 nM GST-BRD4(BD1), 4 nM CoraFluor-labeled GST VHH, 20 nM JQ1-FITC in assay buffer, (ii) 4 nM GST-BRD4(BD2), 4 nM CoraFluor-labeled GST VHH, 20 nM JQ1-FITC in assay buffer, (iii) HEK293T or NPC cell lysate at 0.8 mg/mL total protein, 1 nM rabbit anti-BRD4 antibody, 2 nM CoraFluor-labeled anti-rabbit Nano-Secondary, 20 nM JQ1-FITC. For all experiments, test compounds were added in serial dilution (cmax = 10 μM) using an HP D300 digital dispenser and allowed to equilibrate for 2 h at room temperature before TR-FRET measurements were taken. The assay floor (background) was defined with the 10 μM mivebresib dose, and the assay ceiling (top) was defined via a no-inhibitor control. Data were fitted to a four-parameter dose–response model in Prism 9.
(§5) For TR-FRET ligand displacement assays with recombinant bromodomains, we have determined the KD of the respective fluorescent tracer (JQ1-FITC) under each assay condition. For endogenous BRD4 in whole cell extract, we have determined the KD,app of JQ1-FITC under each assay condition. Inhibitor KD and KD,app values have been calculated using Cheng-Prusoff principles, outlined in Eq. 2 below:2 KDorKD,app=IC50/1+[S]/KX where IC50 is the measured IC50 value, [S] is the concentration of fluorescent tracer, and KX is the KD or KD,app of the fluorescent tracer for a given condition.

For a further assay, the target named is T2, Recombinant BRD4(BD1) (Homo sapiens, UniProt O60885).
T2 construct: using the recombinant, individually purified bromodomains of BRD4 (GST-tagged BD1 and BD2); purchased BPS Biosciences, Inc 31,040
The experiment in a line: TR-FRET ligand displacement, recombinant GST-BRD4(BD1). The following applies: for Kd: GST-tagged, with 95% confidence interval. On the procedure:
as §2
Assays were performed as described. Recombinant BRD4(BD1) and BRD4(BD2) were purchased from BPS Biosciences, Inc and Epicypher, Inc (GST-BRD4(BD1), 31,040; GST-BRD4(BD2), 15–0013, respectively). Recombinant bromodomains were diluted to 0.5 nM in assay buffer (25 mM HEPES, 150 mM NaCl, 0.5 mg/mL BSA, 0.005% TWEEN-20, pH 7.5) with 2 nM CoraFluor-1-labeled GST VHH (ChromoTek ST-250), then JQ1-FITC was added in serial dilution (cmax = 100 nM) using an HP D300 digital dispenser and allowed to equilibrate for 2 h at room temperature before TR-FRET measurements were taken. Nonspecific signal was determined with 50 μM JQ1-Acid, and data were fitted to a One Site–Specific Binding model in Prism 9. The KD determined from the one-site model was then used in Eq. 1 to adjust for a two-site model due to the dimeric GST protein:1 KD,2-site=KD,1-site×(1+2)
as §4, §5
Background: In TR-FRET formats the signal depends on donor and acceptor labels being close together.

For assay [1], the target named is T3, Endogenous BRD4 (HEK293T) (Homo sapiens, UniProt O60885).
T3 construct: target engagement toward endogenous BRD4 derived from cellular lysates of cell types of interest; endogenous in cells; host or cells: HEK293T
Put plainly: CoraFluor TR-FRET ligand displacement, endogenous BRD4 in HEK293T lysate. The conditions noted are these: with 95% confidence interval, read-out: Endogenous BRD4 (HEK293T), KD,app. As for the experimental part: as §1, §2, §3, §4, §5

For `Cn1cc(-c2cccnc2Oc2ccc(F)cc2)c2cc[nH]c2c1=O` [Compound 18A, 4-(2-(4-fluorophenoxy)pyridin-3-yl)-6-methyl-1H-pyrrolo[2,3-c]pyridin-7(6H)-one], the Kd on Endogenous BRD4 (NPC) worked out at 46 nM; at Recombinant BRD4(BD1) it was 28 nM; in assay [1], 44 nM.
For the compound `Cn1ccc2c(-c3cccnc3Sc3ccc(F)cc3)c[nH]c2c1=O` [Compound 84B, 3-(2-((4-fluorophenyl)thio)pyridin-3-yl)-6-methyl-1,6-dihydro-7H-pyrrolo[2,3-c]pyridin-7-one], the values for the Kd (at Endogenous BRD4 (NPC); on Recombinant BRD4(BD1); in assay [1]) were 195 nM, 43 nM and 196 nM, respectively.
In the case of `Cn1cc(-c2cccnc2Nc2ccc(F)cc2)c2cc[nH]c2c1=O` [Compound 85A, 4-(2-((4-fluorophenyl)amino)pyridin-3-yl)-6-methyl-1,6-dihydro-7H-pyrrolo[2,3-c]pyridin-7-one], the Kd was 100 nM at Endogenous BRD4 (NPC), 76 nM on Recombinant BRD4(BD1) and 93 nM in assay [1]. The “selectivity for BD1 over BD2” value on Recombinant BRD4(BD1) (recombinant BRD4 BD1 vs BD2) is recorded as ~ 5.5 fold.
`Cn1cc(-c2cccnc2Oc2ccc(F)c(F)c2)c2cc[nH]c2c1=O` [Compound 81A, 4-(2-(3,4-difluorophenoxy)pyridin-3-yl)-6-methyl-1,6-dihydro-7H-pyrrolo[2,3-c]pyridin-7-one]: the Kd was found to be 32 nM on Endogenous BRD4 (NPC), 29 nM on Recombinant BRD4(BD1) and 30 nM in assay [1].
Taken in the same sequence, the figures for `Cn1cc(-c2cccnc2Oc2cc(F)cc(F)c2)c2cc[nH]c2c1=O` [Compound 82A, 4-(2-(3,5-difluorophenoxy)pyridin-3-yl)-6-methyl-1,6-dihydro-7H-pyrrolo[2,3-c]pyridin-7-one] were 45 nM, 41 nM and 49 nM.
In the case of `Cn1ccc2c(-c3cccnc3Oc3cc(F)cc(F)c3)c[nH]c2c1=O` [Compound 82B, 3-(2-(3,5-difluorophenoxy)pyridin-3-yl)-6-methyl-1,6-dihydro-7H-pyrrolo[2,3-c]pyridin-7-one], the figures for the Kd (on Endogenous BRD4 (NPC); on Recombinant BRD4(BD1); in assay [1]) were 430 nM, 147 nM and 519 nM, respectively.
Take `Cn1ccc2c(-c3cccnc3Nc3ccc(F)cc3)c[nH]c2c1=O` [Compound 85B, 3-(2-((4-fluorophenyl)amino)pyridin-3-yl)-6-methyl-1,6-dihydro-7H-pyrrolo[2,3-c]pyridin-7-one]: the Kd on Endogenous BRD4 (NPC) is 3810 nM; on Recombinant BRD4(BD1), 951 nM; in assay [1] it was 3910 nM.
Regarding `Cn1cc(-c2cc(F)cnc2Oc2ccc(F)cc2)c2cc[nH]c2c1=O` [Compound 86A, 4-(5-fluoro-2-(4-fluorophenoxy)pyridin-3-yl)-6-methyl-1,6-dihydro-7H-pyrrolo[2,3-c]pyridin-7-one], the Kd was 559 nM on Endogenous BRD4 (NPC), 168 nM at Recombinant BRD4(BD1) and 559 nM in assay [1].
Consider `Cn1ccc2c(-c3cccnc3Oc3ccc(F)cc3)c[nH]c2c1=O` [Compound 18B, 3-[2-(4-fluorophenoxy)pyridin-3-yl]-6-methyl-1,6-dihydro-7H-pyrrolo[2,3-c]pyridin-7-one], for which the Kd at Endogenous BRD4 (NPC) is 131 nM; at Recombinant BRD4(BD1), 46 nM; in assay [1], 121 nM.
The like results for `Cn1cc(-c2cccnc2Sc2ccc(F)cc2)c2cc[nH]c2c1=O` [Compound 84A, 4-(2-((4-fluorophenyl)thio)pyridin-3-yl)-6-methyl-1,6-dihydro-7H-pyrrolo[2,3-c]pyridin-7-one] were, in that order, 378 nM, 303 nM and 370 nM.
Consider `Cn1ccc2c(-c3cc(F)cnc3Oc3ccc(F)cc3)c[nH]c2c1=O` [Compound 86B, 3-(5-fluoro-2-(4-fluorophenoxy)pyridin-3-yl)-6-methyl-1,6-dihydro-7H-pyrrolo[2,3-c]pyridin-7-one], for which the results for the Kd (at Endogenous BRD4 (NPC); on Recombinant BRD4(BD1); in assay [1]) were 5900 nM, 2640 nM and 7150 nM, respectively.
As for `Cn1ccc2c(-c3cccnc3Oc3ccc(F)c(F)c3)c[nH]c2c1=O` [Compound 81B, 3-(2-(3,4-difluorophenoxy)pyridin-3-yl)-6-methyl-1,6-dihydro-7H-pyrrolo[2,3-c]pyridin-7-one], the Kd at Endogenous BRD4 (NPC) was 532 nM; on Recombinant BRD4(BD1), 126 nM; in assay [1], 538 nM.
